Source: patent US12479847B2 (DANA-FARBER CANCER INSTITUTE, INC., priority 2019, dated 2025)

Biological target: human LRRK2 kinase (Homo sapiens, UniProt Q5S007)
Settings: LRRK2, ADP-Glo, ATP 10 μM, 60 minutes at 25° C.

Chain of human LRRK2 kinase (Q5S007 whole entry): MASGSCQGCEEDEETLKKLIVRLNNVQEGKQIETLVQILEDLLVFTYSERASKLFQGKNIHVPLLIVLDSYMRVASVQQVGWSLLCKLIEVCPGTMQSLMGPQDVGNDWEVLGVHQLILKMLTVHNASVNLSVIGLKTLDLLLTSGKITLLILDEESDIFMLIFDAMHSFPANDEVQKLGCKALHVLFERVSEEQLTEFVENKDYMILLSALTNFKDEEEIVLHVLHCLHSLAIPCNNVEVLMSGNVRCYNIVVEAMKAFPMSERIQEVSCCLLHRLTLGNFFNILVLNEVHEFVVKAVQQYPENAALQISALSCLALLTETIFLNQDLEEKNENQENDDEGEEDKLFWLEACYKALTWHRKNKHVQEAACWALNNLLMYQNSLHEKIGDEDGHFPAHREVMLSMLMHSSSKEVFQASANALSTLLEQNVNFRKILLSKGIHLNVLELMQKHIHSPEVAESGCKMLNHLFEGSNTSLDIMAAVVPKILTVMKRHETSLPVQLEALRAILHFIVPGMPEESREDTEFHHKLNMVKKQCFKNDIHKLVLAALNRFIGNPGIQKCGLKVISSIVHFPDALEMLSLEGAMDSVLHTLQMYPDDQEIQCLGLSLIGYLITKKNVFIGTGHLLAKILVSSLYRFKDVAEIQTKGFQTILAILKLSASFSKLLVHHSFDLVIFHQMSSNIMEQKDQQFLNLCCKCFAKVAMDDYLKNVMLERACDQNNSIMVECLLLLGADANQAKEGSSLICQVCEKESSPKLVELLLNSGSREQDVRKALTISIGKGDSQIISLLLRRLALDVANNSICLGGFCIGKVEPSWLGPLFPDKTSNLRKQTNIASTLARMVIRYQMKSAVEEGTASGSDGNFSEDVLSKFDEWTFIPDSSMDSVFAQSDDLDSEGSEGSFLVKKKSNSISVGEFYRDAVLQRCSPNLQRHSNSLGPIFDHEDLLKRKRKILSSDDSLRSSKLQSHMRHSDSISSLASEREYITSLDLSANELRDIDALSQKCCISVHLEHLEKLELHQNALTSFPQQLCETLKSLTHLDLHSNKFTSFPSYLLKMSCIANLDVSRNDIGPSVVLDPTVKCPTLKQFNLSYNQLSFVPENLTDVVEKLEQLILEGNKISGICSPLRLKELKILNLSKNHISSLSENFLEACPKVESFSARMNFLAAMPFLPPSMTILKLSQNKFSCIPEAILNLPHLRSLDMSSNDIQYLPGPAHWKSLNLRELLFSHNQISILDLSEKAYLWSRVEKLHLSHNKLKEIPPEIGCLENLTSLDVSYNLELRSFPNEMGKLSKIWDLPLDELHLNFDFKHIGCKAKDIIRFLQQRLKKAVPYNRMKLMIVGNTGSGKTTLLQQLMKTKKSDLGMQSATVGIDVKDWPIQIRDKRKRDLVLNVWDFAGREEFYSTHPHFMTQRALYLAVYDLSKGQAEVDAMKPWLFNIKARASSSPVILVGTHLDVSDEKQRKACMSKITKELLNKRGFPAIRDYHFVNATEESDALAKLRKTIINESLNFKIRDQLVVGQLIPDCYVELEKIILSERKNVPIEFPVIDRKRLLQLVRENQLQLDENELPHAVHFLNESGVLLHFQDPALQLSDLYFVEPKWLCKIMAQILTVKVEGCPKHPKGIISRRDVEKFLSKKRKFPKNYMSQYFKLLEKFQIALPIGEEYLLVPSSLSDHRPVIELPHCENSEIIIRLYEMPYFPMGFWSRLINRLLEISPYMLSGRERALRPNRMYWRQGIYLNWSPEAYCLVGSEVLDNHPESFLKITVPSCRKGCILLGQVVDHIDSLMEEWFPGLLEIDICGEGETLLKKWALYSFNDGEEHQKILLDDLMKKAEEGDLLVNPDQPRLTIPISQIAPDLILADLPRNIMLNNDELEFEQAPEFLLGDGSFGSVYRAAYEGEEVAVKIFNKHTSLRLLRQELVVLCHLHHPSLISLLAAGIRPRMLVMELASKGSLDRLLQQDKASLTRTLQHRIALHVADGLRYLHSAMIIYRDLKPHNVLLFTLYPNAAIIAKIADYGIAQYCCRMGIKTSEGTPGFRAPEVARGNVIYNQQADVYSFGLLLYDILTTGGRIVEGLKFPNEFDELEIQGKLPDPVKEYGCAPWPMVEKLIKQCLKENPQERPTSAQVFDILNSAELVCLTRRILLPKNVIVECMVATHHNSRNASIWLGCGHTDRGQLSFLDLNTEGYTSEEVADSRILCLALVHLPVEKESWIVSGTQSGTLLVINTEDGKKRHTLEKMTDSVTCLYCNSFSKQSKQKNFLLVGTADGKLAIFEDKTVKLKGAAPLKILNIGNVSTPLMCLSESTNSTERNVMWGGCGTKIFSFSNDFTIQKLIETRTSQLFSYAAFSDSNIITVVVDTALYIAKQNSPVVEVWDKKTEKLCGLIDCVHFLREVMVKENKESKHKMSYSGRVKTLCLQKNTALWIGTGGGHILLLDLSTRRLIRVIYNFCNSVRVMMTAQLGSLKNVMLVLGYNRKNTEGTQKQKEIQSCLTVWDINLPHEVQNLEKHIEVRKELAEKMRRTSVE

IC50	SMILES
< 10 nM	CCNc1nc(Nc2ccc(P3(=O)CCN(C(C)=O)CC3)cc2OC)nc2[nH]cc(Cl)c12 [Compound 98]
< 10 nM	COc1cc(S(=O)(=O)N2CCOCC2)ccc1Nc1nc(NC2CCOCC2)c2c(Cl)c[nH]c2n1 [Compound 62, 5-chloro-N2-(2-methoxy-4-(morpholinosulfonyl)phenyl)-N4-(tetrahydro-2H-pyran-4-yl)-7H-pyrrolo[2,3-d]pyrimidine-2,4-diamine]
10 to 100 nM	COc1cc(P2(=O)CCN(C3CCOCC3)CC2)ccc1Nc1nc(NC2CCCCC2)c2c(Cl)c[nH]c2n1 [Compound 81, 4-(4-((5-chloro-4-(cyclohexylamino)-7H-pyrrolo[2,3-d]pyrimidin-2-yl)amino)-3-methoxyphenyl)-1-(tetrahydro-2H-pyran-4-yl)-1,4-azaphosphinane 4-oxide]
10 to 100 nM	COc1cc(P2(=O)CCN(C(C)=O)CC2)ccc1Nc1nc(NC(C)C)c2c(Cl)c[nH]c2n1 [Compound 89, 1-(4-(4-((5-chloro-4-(isopropylamino)-7H-pyrrolo[2,3-d]pyrimidin-2-yl)amino)-3-methoxyphenyl)-4-oxido-1,4-azaphosphinan-1-yl)ethan-1-one]
100 to 1000 nM	COc1cc(P2(=O)CCN(C3CC3)CC2)ccc1Nc1nc(NCC(C)C)c2c(Cl)c[nH]c2n1 [Compound 96, 4-(4-((5-chloro-4-(isobutylamino)-7H-pyrrolo[2,3-d]pyrimidin-2-yl)amino)-3-methoxyphenyl)-1-cyclopropyl-1,4-azaphosphinane 4-oxide]
< 10 nM	CNc1nc(Nc2ccc(C(=O)N3CCOCC3)c3c2OCC3)nc2[nH]cc(Cl)c12 [Compound 76, (7-((5-chloro-4-(methylamino)-7H-pyrrolo[2,3-d]pyrimidin-2-yl)amino)-2,3-dihydrobenzofuran-4-yl)(morpholino)methanone]
< 10 nM	O=C(c1ccc(Nc2nc(NCC3CC3)c3c(Cl)c[nH]c3n2)c2c1OCCO2)N1CCOCC1 [Compound 65, (8-((5-chloro-4-((cyclopropylmethyl)amino)-7H-pyrrolo[2,3-d]pyrimidin-2-yl)amino)-2,3-dihydrobenzo[b][1,4]dioxin-5-yl)(morpholino)methanone]
10 to 100 nM	CCCCNc1nc(Nc2ccc(C(=O)N3CCOCC3)c3c2OCCO3)nc2[nH]cc(Cl)c12 [Compound 74, (8-((4-(butylamino)-5-chloro-7H-pyrrolo[2,3-d]pyrimidin-2-yl)amino)-2,3-dihydrobenzo[b][1,4]dioxin-5-yl)(morpholino)methanone]
10 to 100 nM	COc1cc(P2(=O)CCN(C3CC3)CC2)ccc1Nc1nc(NC2CC2)c2c(Cl)c[nH]c2n1 [Compound 90, 4-(4-((5-chloro-4-(cyclopropylamino)-7H-pyrrolo[2,3-d]pyrimidin-2-yl)amino)-3-methoxyphenyl)-1-cyclopropyl-1,4-azaphosphinane 4-oxide]
< 10 nM	COc1cc(S(=O)(=O)N2CCC(N3CCOCC3)CC2)ccc1Nc1nc(N[C@H]2CCOC2)c2c(Cl)c[nH]c2n1 [Compound 61, (S)-5-chloro-N2-(2-methoxy-4-((4-morpholinopiperidin-1-yl)sulfonyl)phenyl)-N4-(tetrahydrofuran-3-yl)-7H-pyrrolo[2,3-d]pyrimidine-2,4-diamine]
< 10 nM	CCNc1nc(Nc2ccc(C(=O)N3CCC(N4CCOCC4)CC3)c3c2OCC3)nc2[nH]cc(Cl)c12 [Compound 105, (7-((5-chloro-4-(ethylamino)-7H-pyrrolo[2,3-d]pyrimidin-2-yl)amino)-2,3-dihydrobenzofuran-4-yl)(4-morpholinopiperidin-1-yl)methanone]
10 to 100 nM	CCNc1nc(Nc2ccc(P3(=O)CCN(C4CC4)CC3)cc2OC)nc2[nH]cc(Cl)c12 [Compound 84, 4-(4-((5-chloro-4-(ethylamino)-7H-pyrrolo[2,3-d]pyrimidin-2-yl)amino)-3-methoxyphenyl)-1-cyclopropyl-1,4-azaphosphinane 4-oxide]
10 to 100 nM	CCCNc1nc(Nc2ccc(P3(=O)CCN(C(C)=O)CC3)cc2OC)nc2[nH]cc(Cl)c12 [Compound 100, 1-(4-(4-((5-chloro-4-(propylamino)-7H-pyrrolo[2,3-d]pyrimidin-2-yl)amino)-3-methoxyphenyl)-4-oxido-1,4-azaphosphinan-1-yl)ethan-1-one]
10 to 100 nM	COc1cc(P2(=O)CCN(C(C)=O)CC2)ccc1Nc1nc(NC2CCC2)c2c(Cl)c[nH]c2n1 [Compound 92]
< 10 nM	CNc1nc(Nc2ccc(C(=O)N3CCC(N4CCOCC4)CC3)c3c2OCC3)nc2[nH]cc(Cl)c12 [Compound 86, (7-((5-chloro-4-(methylamino)-7H-pyrrolo[2,3-d]pyrimidin-2-yl)amino)-2,3-dihydrobenzofuran-4-yl)(4-morpholinopiperidin-1-yl)methanone]
10 to 100 nM	CCCCNc1nc(Nc2ccc(S(=O)(=O)N3CCOCC3)cc2OC)nc2[nH]cc(Cl)c12 [Compound 71, N4-butyl-5-chloro-N2-(2-methoxy-4-(morpholinosulfonyl)phenyl)-7H-pyrrolo[2,3-d]pyrimidine-2,4-diamine]
< 10 nM	CNc1nc(Nc2ccc(P3(=O)CCN(C(C)=O)CC3)cc2OC)nc2[nH]cc(Cl)c12 [Compound 82, 1-(4-(4-((5-chloro-4-(methylamino)-7H-pyrrolo[2,3-d]pyrimidin-2-yl)amino)-3-methoxyphenyl)-4-oxido-1,4-azaphosphinan-1-yl)ethan-1-one]

Further lines, the molecule ahead of its results:

SMILES	IC50
COc1cc(S(C)(=O)=O)ccc1Nc1nc(NC2CCCC2)c2c(Cl)c[nH]c2n1 [Compound 57, 5-chloro-N4-cyclopentyl-N2-(2-methoxy-4-(methylsulfonyl)phenyl)-7H-pyrrolo[2,3-d]pyrimidine-2,4-diamine]	100 to 1000 nM
COc1cc(S(C)(=O)=O)ccc1Nc1nc(NC2CC2)c2c(Cl)c[nH]c2n1 [Compound 26, 5-chloro-N4-cyclopropyl-N2-(2-methoxy-4-(methylsulfonyl)phenyl)-7H-pyrrolo[2,3-d]pyrimidine-2,4-diamine]	< 10 nM
COc1cc(S(C)(=O)=O)ccc1Nc1nc(NCC(C)C)c2c(Cl)c[nH]c2n1 [Compound 32, 5-chloro-N4-isobutyl-N2-(2-methoxy-4-(methylsulfonyl)phenyl)-7H-pyrrolo[2,3-d]pyrimidine-2,4-diamine]	100 to 1000 nM
COc1cc(S(=O)(=O)N2CCOCC2)ccc1Nc1nc(NC2CCCCC2)c2c(Cl)c[nH]c2n1 [Compound 58, 5-chloro-N4-cyclohexyl-N2-(2-methoxy-4-(morpholinosulfonyl)phenyl)-7H-pyrrolo[2,3-d]pyrimidine-2,4-diamine]	100 to 1000 nM
CCNc1nc(Nc2ccc(C(=O)N3CCOCC3)c3c2OCCO3)nc2[nH]cc(Cl)c12 [Compound 17, (8-((5-chloro-4-(ethylamino)-7H-pyrrolo[2,3-d]pyrimidin-2-yl)amino)-2,3-dihydrobenzo[b][1,4]dioxin-5-yl)(morpholino)methanone]	< 10 nM
COc1cc(S(=O)(=O)N2CCOCC2)ccc1Nc1nc(N[C@H]2CCOC2)c2c(Cl)c[nH]c2n1 [Compound 60, (S)-5-chloro-N2-(2-methoxy-4-(morpholinosulfonyl)phenyl)-N4-(tetrahydrofuran-3-yl)-7H-pyrrolo[2,3-d]pyrimidine-2,4-diamine]	10 to 100 nM
COc1cc(S(=O)(=O)N2CCOCC2)ccc1Nc1nc(NC2CC2)c2c(Cl)c[nH]c2n1 [Compound 24, 5-chloro-N4-cyclopropyl-N2-(2-methoxy-4-(morpholinosulfonyl)phenyl)-7H-pyrrolo[2,3-d]pyrimidine-2,4-diamine]	10 to 100 nM
COCCNc1nc(Nc2ccc(C(=O)N3CCC(N4CCOCC4)CC3)c3c2OCCO3)nc2[nH]cc(Cl)c12 [Compound 5, (8-((5-chloro-4-((2-methoxyethyl)amino)-7H-pyrrolo[2,3-d]pyrimidin-2-yl)amino)-2,3-dihydrobenzo[b][1,4]dioxin-5-yl)(4-morpholinopiperidin-1-yl)methanone]	< 10 nM
CNc1nc(Nc2ccc(S(=O)(=O)N3CCOCC3)cc2OC)nc2[nH]cc(Cl)c12 [Compound 11, 5-chloro-N2-(2-methoxy-4-(morpholinosulfonyl)phenyl)-N4-methyl-7H-pyrrolo[2,3-d]pyrimidine-2,4-diamine]	< 10 nM
CCC(C)Nc1nc(Nc2ccc(S(C)(=O)=O)cc2OC)nc2[nH]cc(Cl)c12 (stereo in doubt) [Compound 53, (S)—N4-(sec-butyl)-5-chloro-N2-(2-methoxy-4-(methylsulfonyl)phenyl)-7H-pyrrolo[2,3-d]pyrimidine-2,4-diamine]	100 to 1000 nM
COc1cc(S(=O)(=O)N2CCOCC2)ccc1Nc1nc(NCC2CCCC2)c2c(Cl)c[nH]c2n1 [Compound 45, 5-chloro-N4-(cyclopentylmethyl)-N2-(2-methoxy-4-(morpholinosulfonyl)phenyl)-7H-pyrrolo[2,3-d]pyrimidine-2,4-diamine]	100 to 1000 nM
CCNc1nc(Nc2ccc(S(=O)(=O)N3CCC(N4CCOCC4)CC3)cc2OC)nc2[nH]cc(Cl)c12 [Compound 15, 5-chloro-N4-ethyl-N2-(2-methoxy-4-((4-morpholinopiperidin-1-yl)sulfonyl)phenyl)-7H-pyrrolo[2,3-d]pyrimidine-2,4-diamine]	< 10 nM
COCCNc1nc(Nc2ccc(S(=O)(=O)N3CCOCC3)cc2OC)nc2[nH]cc(Cl)c12 [Compound 21, 5-chloro-N2-(2-methoxy-4-(morpholinosulfonyl)phenyl)-N4-(2-methoxyethyl)-7H-pyrrolo[2,3-d]pyrimidine-2,4-diamine]	< 10 nM
COc1cc(S(=O)(=O)N2CCOCC2)ccc1Nc1nc(NCC(C)C)c2c(Cl)c[nH]c2n1 [Compound 31, 5-chloro-N4-isobutyl-N2-(2-methoxy-4-(morpholinosulfonyl)phenyl)-7H-pyrrolo[2,3-d]pyrimidine-2,4-diamine]	100 to 1000 nM
O=C(c1ccc(Nc2nc(NC3CCC3)c3c(Cl)c[nH]c3n2)c2c1OCCO2)N1CCOCC1 [Compound 30, (8-((5-chloro-4-(cyclobutylamino)-7H-pyrrolo[2,3-d]pyrimidin-2-yl)amino)-2,3-dihydrobenzo[b][1,4]dioxin-5-yl)(morpholino)methanone]	< 10 nM
